Calls of active or inactive are those of the source.
Legend:
[1] = HEK-293T viability loss after treatment – luminescence, T-cell screen hits, cytotoxicity control for TCR NF-kB inhibitor project, dose response (AID 489026); format: functional, cell-based;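 note: cells exposed to compound about 14 hours before the viability readout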
[2] = HEK-293T cell viability reduction – luminescence, B-cell screen hits, cytotoxicity control for BCR NF-kB inhibitor project, dose response (AID 489021); format: functional, cell-based;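 note: HEK-293T cells carrying an NF-kB luciferase reporter; cells exposed to compound for about 14 hours before viability readout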
[3] = molecular target: Eukaryotic translation initiation factor 4E (Mus musculus, UniProt P63073); assay: blockers of eIF4G binding by eIF4E – biochemical, TR-FRET, dose response (AID 855); format: functional;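 note: potency for disrupting eIF4E binding to eIF4GI seen as loss of FRET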
Chain of Eukaryotic translation initiation factor 4E (P63073 whole entry): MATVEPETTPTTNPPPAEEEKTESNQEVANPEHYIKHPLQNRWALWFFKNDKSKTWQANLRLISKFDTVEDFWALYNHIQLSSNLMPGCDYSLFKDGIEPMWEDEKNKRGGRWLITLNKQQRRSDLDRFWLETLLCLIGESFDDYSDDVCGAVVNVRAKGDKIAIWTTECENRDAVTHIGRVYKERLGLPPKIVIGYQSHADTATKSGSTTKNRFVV

[4] = molecular target: Induced myeloid leukemia cell differentiation protein Mcl-1 (Homo sapiens, UniProt Q07820); format: functional
Chain of Induced myeloid leukemia cell differentiation protein Mcl-1 (Q07820 whole entry): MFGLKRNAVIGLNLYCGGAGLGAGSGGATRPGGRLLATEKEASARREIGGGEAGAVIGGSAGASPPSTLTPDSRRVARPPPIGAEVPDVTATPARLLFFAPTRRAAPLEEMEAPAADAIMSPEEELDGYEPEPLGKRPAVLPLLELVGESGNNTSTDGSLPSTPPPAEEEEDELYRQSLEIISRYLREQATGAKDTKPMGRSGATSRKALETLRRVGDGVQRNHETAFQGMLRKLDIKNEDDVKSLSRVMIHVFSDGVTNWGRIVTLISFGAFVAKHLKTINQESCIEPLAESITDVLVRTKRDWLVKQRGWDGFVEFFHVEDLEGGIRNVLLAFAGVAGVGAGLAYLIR

[5] = molecular target: T1, Heat shock factor protein 1 (Mus musculus, UniProt P38532); assay: enhancement of HSF1-driven luciferase signal – cell-based, NIH3T3, luminescence, dose retest, confirmation (AID 435004); format: functional;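 note: stress induced by proteasome inhibitor MG132 added 30 min after compound; luciferase reporter driven by HSF1 response element in NIH3T3 cells; actives raise luminescence as potentiators of the MG132 stress response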
T1 sequence (P38532 whole entry): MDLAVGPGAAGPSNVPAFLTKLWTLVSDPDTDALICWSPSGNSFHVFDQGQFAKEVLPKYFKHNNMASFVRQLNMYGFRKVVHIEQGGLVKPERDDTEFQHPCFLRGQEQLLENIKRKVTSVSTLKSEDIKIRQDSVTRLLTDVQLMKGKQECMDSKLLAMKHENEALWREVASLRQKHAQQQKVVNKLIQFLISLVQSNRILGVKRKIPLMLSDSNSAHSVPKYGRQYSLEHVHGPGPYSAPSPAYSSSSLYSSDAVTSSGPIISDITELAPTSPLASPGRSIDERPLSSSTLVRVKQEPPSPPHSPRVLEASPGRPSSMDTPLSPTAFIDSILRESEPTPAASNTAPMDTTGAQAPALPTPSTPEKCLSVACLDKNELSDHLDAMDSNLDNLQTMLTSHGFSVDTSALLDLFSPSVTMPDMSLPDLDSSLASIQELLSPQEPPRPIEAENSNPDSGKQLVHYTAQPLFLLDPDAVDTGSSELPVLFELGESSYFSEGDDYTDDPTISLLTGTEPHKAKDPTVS

SUMO-activating enzyme [6] = molecular target: T2, SUMO-activating enzyme (Homo sapiens, UniProt Q9UBT2); assay: blockers of SAE1/SAE2–UBC9 SUMO transfer – biochemical, HTRF, uHTS, primary screen (AID 2006); format: protein-complex assay
T2 sequence (Q9UBE0 whole entry, the tested form may be a part): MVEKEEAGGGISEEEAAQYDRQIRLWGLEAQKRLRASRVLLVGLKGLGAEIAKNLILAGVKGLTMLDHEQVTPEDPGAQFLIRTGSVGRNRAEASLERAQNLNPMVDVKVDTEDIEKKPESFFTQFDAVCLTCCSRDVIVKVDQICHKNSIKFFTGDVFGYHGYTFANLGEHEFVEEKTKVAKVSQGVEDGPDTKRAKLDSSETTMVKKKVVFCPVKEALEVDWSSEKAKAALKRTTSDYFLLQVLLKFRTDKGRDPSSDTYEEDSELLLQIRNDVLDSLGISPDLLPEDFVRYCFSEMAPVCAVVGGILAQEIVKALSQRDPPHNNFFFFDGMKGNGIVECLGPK
T2 sequence (Q9UBT2 whole entry, the tested form may be a part): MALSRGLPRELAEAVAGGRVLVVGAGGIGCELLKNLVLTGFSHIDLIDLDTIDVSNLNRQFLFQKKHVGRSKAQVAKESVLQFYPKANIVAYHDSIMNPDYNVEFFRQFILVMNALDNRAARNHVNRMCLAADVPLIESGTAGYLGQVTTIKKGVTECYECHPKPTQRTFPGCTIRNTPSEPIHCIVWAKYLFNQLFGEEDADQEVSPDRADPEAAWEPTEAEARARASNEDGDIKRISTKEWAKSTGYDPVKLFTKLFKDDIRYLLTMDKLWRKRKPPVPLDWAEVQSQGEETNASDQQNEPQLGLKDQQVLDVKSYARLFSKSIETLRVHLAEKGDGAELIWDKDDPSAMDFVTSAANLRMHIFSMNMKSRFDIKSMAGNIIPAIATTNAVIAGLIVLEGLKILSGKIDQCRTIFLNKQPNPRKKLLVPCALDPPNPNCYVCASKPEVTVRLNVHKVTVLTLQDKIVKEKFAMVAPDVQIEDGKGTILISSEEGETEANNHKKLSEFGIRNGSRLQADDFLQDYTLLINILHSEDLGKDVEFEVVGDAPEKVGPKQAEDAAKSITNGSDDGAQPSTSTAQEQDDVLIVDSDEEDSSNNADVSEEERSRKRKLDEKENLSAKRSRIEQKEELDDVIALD

[7] = molecular target: T3, RNA-binding protein pos-1 (Caenorhabditis elegans, UniProt G5EF15); assay: disruptors of C. elegans POS-1 RNA interaction – biochemical, fluorescence polarization, dose response (AID 1964);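 note: purified POS-1 fused to maltose binding protein made in E. coli; potency of compounds blocking POS-1 binding to fluorescent RNA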
T3 sequence (G5EF15 whole entry): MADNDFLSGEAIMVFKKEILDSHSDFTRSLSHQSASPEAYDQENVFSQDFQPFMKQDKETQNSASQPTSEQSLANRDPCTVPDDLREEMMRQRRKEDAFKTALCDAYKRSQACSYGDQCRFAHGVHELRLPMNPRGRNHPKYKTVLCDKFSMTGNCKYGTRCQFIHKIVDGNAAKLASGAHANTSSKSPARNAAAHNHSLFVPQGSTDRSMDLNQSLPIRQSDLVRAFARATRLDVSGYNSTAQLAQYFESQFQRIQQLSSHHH

Genome polyprotein = Genome polyprotein (dengue virus type 2, UniProt P29990); assay: flavivirus cap methylation enzyme inhibition – biochemical, confirmation dose response, primary screen (AID 588689); format: functional
Chain of Genome polyprotein (P29990 2492-3391 limits assumed): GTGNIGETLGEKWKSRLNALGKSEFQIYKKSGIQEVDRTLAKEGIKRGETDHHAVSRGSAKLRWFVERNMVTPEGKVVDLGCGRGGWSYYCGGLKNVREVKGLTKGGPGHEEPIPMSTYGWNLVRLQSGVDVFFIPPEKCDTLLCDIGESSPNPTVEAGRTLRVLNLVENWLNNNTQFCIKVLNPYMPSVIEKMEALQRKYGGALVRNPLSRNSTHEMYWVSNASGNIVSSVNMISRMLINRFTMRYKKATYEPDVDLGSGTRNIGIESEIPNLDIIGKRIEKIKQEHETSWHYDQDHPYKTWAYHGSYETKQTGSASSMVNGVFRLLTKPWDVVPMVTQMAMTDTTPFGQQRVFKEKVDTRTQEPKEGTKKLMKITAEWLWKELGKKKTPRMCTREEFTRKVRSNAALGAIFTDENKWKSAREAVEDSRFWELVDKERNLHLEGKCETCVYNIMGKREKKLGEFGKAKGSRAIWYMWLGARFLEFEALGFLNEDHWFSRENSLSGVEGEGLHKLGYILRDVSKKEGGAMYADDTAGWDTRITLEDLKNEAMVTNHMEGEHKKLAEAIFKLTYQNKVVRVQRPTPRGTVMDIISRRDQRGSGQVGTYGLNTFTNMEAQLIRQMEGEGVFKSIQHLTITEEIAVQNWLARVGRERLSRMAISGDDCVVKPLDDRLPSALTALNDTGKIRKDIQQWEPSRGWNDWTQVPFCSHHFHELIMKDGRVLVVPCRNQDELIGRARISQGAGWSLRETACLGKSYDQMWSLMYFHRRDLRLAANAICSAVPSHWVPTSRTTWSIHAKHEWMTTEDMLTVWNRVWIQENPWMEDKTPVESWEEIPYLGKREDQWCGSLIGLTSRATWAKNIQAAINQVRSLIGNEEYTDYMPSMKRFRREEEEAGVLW

SUMO-activating enzyme [8] = molecular target: T2, SUMO-activating enzyme; assay: blockers of UBC9-mediated SUMO conjugation – biochemical, AlphaScreen, SUMOylation inhibitor project, confirmation (AID 2018); format: functional
[9] = molecular target: T4, Zinc finger protein mex-5 (Caenorhabditis elegans, UniProt Q9XUB2); assay: potency of MEX-5 RNA-binding blockers – biochemical, C. elegans, fluorescence polarization, dose response (AID 1960)
T4 sequence (Q9XUB2 whole entry): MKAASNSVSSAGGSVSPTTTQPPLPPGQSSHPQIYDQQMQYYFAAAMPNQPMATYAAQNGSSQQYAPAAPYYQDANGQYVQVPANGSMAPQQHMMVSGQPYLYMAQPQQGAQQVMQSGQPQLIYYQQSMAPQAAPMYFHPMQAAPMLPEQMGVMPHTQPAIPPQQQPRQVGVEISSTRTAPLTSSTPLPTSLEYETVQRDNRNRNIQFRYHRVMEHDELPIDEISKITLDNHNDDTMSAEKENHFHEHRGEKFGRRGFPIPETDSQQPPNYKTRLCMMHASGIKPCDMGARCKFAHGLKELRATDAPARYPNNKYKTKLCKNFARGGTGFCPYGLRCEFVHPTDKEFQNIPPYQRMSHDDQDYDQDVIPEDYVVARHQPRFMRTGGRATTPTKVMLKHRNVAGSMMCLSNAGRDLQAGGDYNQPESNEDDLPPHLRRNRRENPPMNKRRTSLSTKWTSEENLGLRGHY

[10] = Luminescence Cell-Based Dose Confirmation HTS to Identify Activators of 5'UTR Stem-Loop Driven Alpha-Synuclein mRNA Translation in H4 Neuroglioblastoma Cells. [Related pubchem assays: 1829 (Project Summary), 1814 (Primary HTS)]; format: functional
Aminopeptidase N = molecular target: T5, Aminopeptidase N (Plasmodium falciparum FcB1/Columbia, UniProt O96935); assay: malaria alanyl aminopeptidase activity blockers – biochemical, fluorogenic H-Leu-NHMec substrate, 1536-well (AID 1445); set-up: species or system Plasmodium falciparum 3D7, 3D7
T5 sequence (O96935 whole entry): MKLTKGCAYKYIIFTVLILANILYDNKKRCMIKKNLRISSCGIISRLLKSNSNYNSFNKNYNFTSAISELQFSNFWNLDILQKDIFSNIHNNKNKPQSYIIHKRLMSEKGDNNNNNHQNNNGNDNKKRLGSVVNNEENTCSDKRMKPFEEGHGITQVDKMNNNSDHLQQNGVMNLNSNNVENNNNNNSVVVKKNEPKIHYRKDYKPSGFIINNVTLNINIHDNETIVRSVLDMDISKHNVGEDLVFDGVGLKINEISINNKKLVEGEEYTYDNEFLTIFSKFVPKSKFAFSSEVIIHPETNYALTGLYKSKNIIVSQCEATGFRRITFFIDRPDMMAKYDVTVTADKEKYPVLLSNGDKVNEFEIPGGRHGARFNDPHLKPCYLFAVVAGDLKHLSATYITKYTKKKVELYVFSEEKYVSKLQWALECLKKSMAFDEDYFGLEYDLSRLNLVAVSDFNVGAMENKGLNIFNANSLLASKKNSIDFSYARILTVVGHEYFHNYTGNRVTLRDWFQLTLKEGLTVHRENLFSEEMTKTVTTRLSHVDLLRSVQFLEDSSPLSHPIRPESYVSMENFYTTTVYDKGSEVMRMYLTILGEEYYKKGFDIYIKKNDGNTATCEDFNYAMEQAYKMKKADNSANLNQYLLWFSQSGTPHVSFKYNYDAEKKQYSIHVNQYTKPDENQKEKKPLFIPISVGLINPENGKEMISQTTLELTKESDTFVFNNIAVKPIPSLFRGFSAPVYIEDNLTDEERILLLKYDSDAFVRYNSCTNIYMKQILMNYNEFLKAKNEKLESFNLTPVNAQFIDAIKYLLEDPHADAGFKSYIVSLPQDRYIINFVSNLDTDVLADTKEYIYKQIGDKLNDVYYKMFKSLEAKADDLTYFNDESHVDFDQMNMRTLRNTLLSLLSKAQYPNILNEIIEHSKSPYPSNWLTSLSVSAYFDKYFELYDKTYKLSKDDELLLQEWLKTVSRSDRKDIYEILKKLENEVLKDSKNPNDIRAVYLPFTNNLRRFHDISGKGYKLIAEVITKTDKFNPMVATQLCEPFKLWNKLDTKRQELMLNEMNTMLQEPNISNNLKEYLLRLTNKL

[11] = Luminescence Cell-Based Dose Response HTS to Identify Activators of Luciferase Translation or Activity in H4 […] Cells. [Related pubchem assays: 1829 (Project Summary), 1814 (Primary HTS)]; format: functional
H4 = assay: Luminescence Cell-Based Dose Response HTS to Identify Activators of 5'UTR Stem-Loop Driven Prion Protein mRNA Translation in H4 Neuroglioblastoma Cells. [Related pubchem assays: 1829 (Project Summary), 1814 (Primary HTS)]; format: functional; settings: Homo sapiens
Protein Wnt-3a = Protein Wnt-3a (Mus musculus, UniProt P27467); assay: antagonism of Wnt3a pathway luciferase reporter – Wnt-LIGHT cells, luminescence, selectivity assay for Gli-SUFU antagonist project, dose response (AID 651570); format: functional; settings: read-out: IC50_Mean;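 note: Wnt-LIGHT reporter cells stimulated with conditioned medium from Wnt3a-producing cells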
Chain of Protein Wnt-3a (P27467 whole entry): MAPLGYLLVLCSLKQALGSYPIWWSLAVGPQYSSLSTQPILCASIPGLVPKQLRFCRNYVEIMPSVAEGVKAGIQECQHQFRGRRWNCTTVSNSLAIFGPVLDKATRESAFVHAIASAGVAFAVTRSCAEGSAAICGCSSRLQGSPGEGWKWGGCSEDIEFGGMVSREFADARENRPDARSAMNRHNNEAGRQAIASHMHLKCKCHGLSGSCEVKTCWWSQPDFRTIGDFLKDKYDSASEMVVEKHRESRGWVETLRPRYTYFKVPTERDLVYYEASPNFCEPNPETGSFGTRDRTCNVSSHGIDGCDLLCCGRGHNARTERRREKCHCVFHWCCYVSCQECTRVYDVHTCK

[12] = non-specific 3'UTR reporter inhibition in Clone20-Shn3RL – cell-based, Renilla luciferase, cherry-picked, counter-screen for Shn3 inhibitor project, dose response (AID 624133); format: functional
[13] = reduction of Shn3 3'UTR-driven luciferase in osteoblasts – cell-based, Clone20 osteoblasts, firefly luciferase, cherry-picked, dose response (AID 624132); format: functional;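 note: firefly luciferase luminescence from reporter carrying the Shn3 3'UTR in osteoblasts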
[14] = loss of viability in HepG2 cells – cell-based, CellTiter-Glo, cherry-picked, cytotoxicity control for Shn3 inhibitor project, dose response (AID 624134); format: functional
Leucine aminopeptidase = molecular target: T6, Leucine aminopeptidase (Plasmodium falciparum 3D7, UniProt Q8IL11); assay: P. falciparum M17LAP inhibitors, primary screen, biochemical, fluorogenic H-Leu-NHMec substrate, 1536-well (AID 1619); format: functional
T6 sequence (Q8IL11 whole entry): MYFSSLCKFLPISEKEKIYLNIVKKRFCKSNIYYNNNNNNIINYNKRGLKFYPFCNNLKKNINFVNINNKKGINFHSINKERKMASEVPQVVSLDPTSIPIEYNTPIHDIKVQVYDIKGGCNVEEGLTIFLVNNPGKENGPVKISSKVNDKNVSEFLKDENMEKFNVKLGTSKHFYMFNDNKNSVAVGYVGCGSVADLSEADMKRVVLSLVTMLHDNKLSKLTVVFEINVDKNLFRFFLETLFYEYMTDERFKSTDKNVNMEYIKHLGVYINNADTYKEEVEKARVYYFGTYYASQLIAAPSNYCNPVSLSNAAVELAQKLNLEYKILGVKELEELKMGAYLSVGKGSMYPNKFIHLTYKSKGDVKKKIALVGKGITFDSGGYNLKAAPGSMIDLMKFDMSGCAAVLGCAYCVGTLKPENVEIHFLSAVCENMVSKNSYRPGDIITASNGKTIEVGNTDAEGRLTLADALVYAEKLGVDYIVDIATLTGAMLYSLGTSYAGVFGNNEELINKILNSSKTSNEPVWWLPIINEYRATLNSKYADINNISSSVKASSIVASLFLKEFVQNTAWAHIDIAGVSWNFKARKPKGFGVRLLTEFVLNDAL

[15] = molecular target: T7, Rac GTPase-activating protein 1 (Homo sapiens, UniProt Q9H0H5); assay: blockers of MgcRacGAP-driven Rac1 GTP hydrolysis – biochemical, ADP Hunter fluorescence, primary and confirmatory, confirmation (AID 624330); format: functional
T7 sequence (Q9H0H5 whole entry): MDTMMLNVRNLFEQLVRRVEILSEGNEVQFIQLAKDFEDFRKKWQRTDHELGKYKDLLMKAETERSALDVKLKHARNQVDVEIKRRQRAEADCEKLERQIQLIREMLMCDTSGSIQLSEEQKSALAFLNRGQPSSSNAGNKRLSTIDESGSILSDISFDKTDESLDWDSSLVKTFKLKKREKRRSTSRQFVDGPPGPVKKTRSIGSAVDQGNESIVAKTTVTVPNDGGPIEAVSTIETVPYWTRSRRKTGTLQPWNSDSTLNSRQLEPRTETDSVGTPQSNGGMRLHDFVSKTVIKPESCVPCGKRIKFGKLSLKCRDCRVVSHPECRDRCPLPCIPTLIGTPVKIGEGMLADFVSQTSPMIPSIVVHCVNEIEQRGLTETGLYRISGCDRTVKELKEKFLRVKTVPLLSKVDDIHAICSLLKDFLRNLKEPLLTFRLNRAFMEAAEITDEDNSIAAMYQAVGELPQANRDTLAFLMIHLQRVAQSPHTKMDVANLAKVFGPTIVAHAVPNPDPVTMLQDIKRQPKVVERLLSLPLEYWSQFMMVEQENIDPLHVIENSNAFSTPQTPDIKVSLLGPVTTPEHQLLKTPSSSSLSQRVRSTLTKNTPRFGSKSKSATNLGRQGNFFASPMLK

[16] = Luminescence Cell-Based Dose Retest to Confirm Inhibitors of Cancer Stem Cells. [Related pubchem assays (depositor defined):AID2717, AID2721]; format: functional; settings: Homo sapiens

## CCc1ccc(/C=N/NC(=O)c2cc(-c3ccncc3)nc3ccccc23)s1
[1]
  IC50: > 80 µM (inactive)

## COc1ccc(/C=C2\SC(=S)N(CCC(=O)Nc3ccc(O)cc3)C2=O)cc1
[2]
  IC50: > 80 µM (inactive)

## O=C1OC(c2cccs2)=N/C1=C/c1ccc(-c2cccc(C(=O)O)c2)o1
[3]
  IC50: 32.7 µM (inactive)
[4]
  IC50: 1.53 µM (not active)

## Cc1ccc(O)c(NC(=O)COc2cc(C)ccc2C)c1
[5]
  EC50: > 260 µM (inactive)
[2]
  IC50: > 80 µM (inactive)

## CC1=C(C#N)C(=O)NC(=O)/C1=C\c1ccc(-c2cc(C)c(C)cc2[N+](=O)[O-])o1
SUMO-activating enzyme [6]
  IC50: 39.7 µM (active)
[7]
  EC50: > 300 µM (not active)
Genome polyprotein
  IC50: 64.9 µM (active)
[3]
  IC50: 40.4 µM (inactive)
SUMO-activating enzyme [8]
  IC50: 5.31 µM (active)
[4]
  IC50: 2.87 µM (active)
[9]
  EC50: > 300 µM (not active)

## N#Cc1nc(/C=C/c2ccccc2)oc1NCCCN1CCOCC1
[10]
  EC50: 22.1 µM (active)
Aminopeptidase N
  IC50: 39.2 µM (active)
[11]
  EC50: 7.23 µM (active)
H4
  EC50: 38 µM (active)

## CC1CN(S(=O)(=O)c2ccc(C(=O)Nc3nc(-c4cc5ccccc5o4)cs3)cc2)CC(C)O1 (stereo unspecified)
Protein Wnt-3a
  IC50: 1.28 µM (active)
[12]
  AC50: 2.04 µM (active)
[2]
  IC50: > 80 µM (inactive)
[13]
  AC50: < 0.26 µM (active)
[14]
  AC50: 1.02 µM (active)

## Cc1cccc(Nc2nnc(S)s2)c1C
[3]
  IC50: > 64 µM (inactive)
Leucine aminopeptidase
  IC50: 9.62 µM (active)
[15]
  IC50: 67.2 µM (active)

## Cc1c(CCC(=O)N2CCC(C(=O)O)(c3ccccc3)CC2)c(=O)oc2cc3oc4c(c3cc12)CCCC4
[2]
  IC50: > 80 µM (inactive)

## Cc1ccc(-c2nsc3c(N4CCC(C(N)=O)CC4)ncnc23)cc1
[2]
  IC50: > 80 µM (inactive)

## Cc1ccc(CNC(=O)c2ccc(N3CCc4ccccc43)c([N+](=O)[O-])c2)cc1
[3]
  IC50: > 64 µM (inactive)

## CCOC(=O)c1c(CSc2ccccc2)n(C)c2cc(Br)c(OCC(O)CNC(CO)(CO)CO)cc12 (stereo unspecified)
SUMO-activating enzyme [6]
  IC50: 17.9 µM (active)
SUMO-activating enzyme [8]
  IC50: 2.75 µM (active)
[16]
  AC50: 1.46 µM (active)

— ChEMBL document CHEMBL1201862, “PubChem BioAssay data set” (2004)
